Here are results for two molecules from patent US6383772B1, “Enzymatic conversion in a solvent mixture containing water and flourinated, non-chlorinated solvent” (Advanced Phytonic Limited, priority 1997, dated 2002).

SMILES strings stand for the structures. Where only a bound is given, the exact number is not on record here.

Data set [1] is described as follows: Effect of pH on extraction of PAA from enzymatic liquor with Phytosol D. To be noted: 20 ml enzymatic liquor extracted with 40 ml Phytosol D. Type of data set: physicochemical. How it is done:
This example was carried out to assess the efficiency and selectivity of Phytosol D in extracting PAA from the enzymatic liquor at different pH's.
The enzymatic liquor was prepared as described in Example 1 using the enzyme resin from Example C2.
20 ml samples of the liquor were extracted with 40 ml of Phytosol D, at various pH's, using hand held apparatus as follows:
The apparatus consists of a 100 ml graduated glass tube fitted with a filter assembly and a clamping ring which in turn is fitted with a needle valve. The material or solution to be extracted is charged into the tube. The filter is then assembled with the aid of a sealing O ring followed by the clamping ring ensuring that a tight fit is achieved. Phytosol liquid gas is introduced to the glass tube from an aerosol can via the needle valve. The contents of the tube are mixed by vigorous shaking after which the tube is inverted and allowed to stand until the two layers are separated. The Phytosol is then released via the needle valve into an evaporator bottle taking care not to allow any of the aqueous layer to co-discharge.

Data set [2] in a line: Solubility of 6-APA in Phytosol solvent. Type of data set: physicochemical.
The conditions of data set [3]: background statement; cited from earlier work.

Consider `CC1(C)S[C@@H]2[C@H](N)C(=O)N2[C@H]1C(=O)O` [6-APA, 6-Aminopenicillanic acid], for which the “Removed (% of total w/w)” value was <1 % of total w/w in data set [1] (pH 1.4); <1 % of total w/w in data set [1] (pH 3.8); 0 % of total w/w in data set [1] (pH 5.3); 0 % of total w/w in data set [1] (pH 6.5); 0 % of total w/w in data set [1] (pH 8.0). The “solubility in the solvent” value in data set [2] is “negligible”. Besides, the solubility in water result in data set [3] is on record as “around 2%”.
Take `O=C(O)Cc1ccccc1` [PAA, Phenylacetic acid]: the “Removed (% of total w/w)” value in data set [1] (pH 1.4) was >99 % of total w/w; in data set [1] (pH 3.8) it was >99 % of total w/w; in data set [1] (pH 5.3) it was 6.5 % of total w/w; in data set [1] (pH 6.5), <2 % of total w/w; in data set [1] (pH 8.0), 0 % of total w/w.
